Earlier results, collected in US20060252738A1, “Method for preparing and using water-based steroid pheromone compositions” (Phero Tech Inc., priority 2005, published 2006).

What was measured:
sows = conditions: pigs; Reed et al. (1974)
[1] = test system: sows that have reached oestrus; conditions: for function in place of boar saliva: pressurized aerosol sprays in organic solvents, sows that have reached oestrus, Melrose et al. 1971

SMILES	bioactivity as diagnostic tool relative to androstenone (sows)	function in place of boar saliva [1]	effective dose ([1]; established by Melrose et al. (1972)) [µg]
C[C@]12CC[C@H](O)C[C@@H]1CC[C@@H]1[C@@H]2CC[C@]2(C)C=CC[C@@H]12 [3β-hydroxy-5α-androst-16-ene]	less effective	–	–
C[C@@]12CCC[C@H]1[C@@H]1CC[C@H]3CC(=O)CC[C@]3(C)[C@H]1CC2 [5α-androstan-3-one]	less effective	–	–
C[C@]12CCC(=O)C[C@H]1CC[C@@H]1[C@@H]2CC[C@]2(C)C=CC[C@@H]12 [5β-androst-16-en-3-one]	comparable	–	–
C[C@]12CC[C@@H](O)C[C@@H]1CC[C@@H]1[C@@H]2CC[C@]2(C)C=CC[C@@H]12 [androstenol, 3α-hydroxy-5a-androst-16-ene]	–	inducing an immobile mating stance	–
C[C@]12CCC(=O)C[C@@H]1CC[C@@H]1[C@@H]2CC[C@]2(C)C=CC[C@@H]12 [androstenone, 5α-androst-16-en-3-one]	–	inducing an immobile mating stance	2 to 20
C[C@@]12C=CC[C@H]1[C@@H]1CCC3=CC(=O)CC[C@]3(C)[C@H]1CC2 [andrsost-4,16-dien-3-one]	comparable	–	–
